# From patent US20100196194A1, “METHOD FOR S[…] WITH OZONE” (BRADFORD I[…], priority 2006, published 2010)
# How the values were obtained:
# [1] = system: spores of the bacterium Bacillus Atrophaeus; test: sterilization of standard spore strips (10E6), growth check after 48 hours at 37° C. in tryptone soya broth; assay type: cell-based
# Excerpt: The FIGS. 3A-3B illustrate another experiment, executed on spores of the bacterium Bacillus Atrophaeus (previously known as Bacillus subtilis var. niger); from all bacterial spores, the spores of this bacterium Bacillus Astrophaeus are the most resistant to ozone. Use was made of standard spore strips with the qualification 10E6; these are strips on which in the order of 10^6 bacterial spores have been deposited. The used strips were obtained from the company Etigam BV in Apeldoorn, Netherlands. According to statement of the supplier, these spores were obtained from the American Type Culture Collection (ATCC) 9372.
# In this experiment, the spore strips were submitted to a sterilization process, wherein the ozone concentration, the degree of humidity and the treatment time were measured. The spore strips were removed from the sterilization chamber, and than were stored for 48 hours at a temperature of 37° C. in a test tube filled with tryptone soya broth (“tryptone Soya Broth”, TSB). TSB is a standard nutrition medium, obtainable at Tritium-Microbiologie BV in Veldhoven, Netherlands, type indication T406.24.0005.
# Each time, four spore strips were treated simultaneously. After the storage time of 48 hours, for each spore strip it was investigated whether bacterial spores had grown. If visually no bacterial growth could be detected, it was assumed that all spores of the relevant spore strip had been killed. If visually bacterial growth could be detected, the relevant spore strip was qualified as “insufficiently sterilized”. The results are presented in the FIGS. 3A and 3B, wherein FIG. 3A relates to measurements at an ambient temperature of 20° C. during the sterilization process and FIG. 3B relates to measurements at an ambient temperature of 30° C. during the sterilization process. The horizontal axis in the figures represents the measured degree of humidity in percentages, the vertical axis represents the time integral of the ozone concentration, indicated as ∫[O3], in units of gr·s/l. In the area 131, 100% of the bacterial spores of all four the test strips were always killed. In the area 132, each time one spore strip was insufficiently sterilized. In the area 133, each time two spore strips were insufficiently sterilized. In the area 134, each time three or four spore strips were insufficiently sterilized. The rectangular areas that are cut away from the top left of the graphs are areas belonging to test strips that were not analyzed.
# bacterial spores = test: relation between ozone concentration and time needed for sterilization of bacterial spore samples; assay type: cell-based; conditions: ozone concentration 2-3 mgr/l (based on 1 atm), moisture content 60-80%
# Procedure: Experimentally, the relation has been investigated between ozone concentration and the time needed for sterilization. A typical measurement procedure is as follows. A sample with bacterial spores is prepared, and exposed in the chamber 10 to an ozone-containing atmosphere with a specific temperature and air humidity, during a specific treatment time, after which the sample is removed from the chamber 10. […] Thus, a series of samples is treated, each time with different treatment times. To obtain a greater certainty, the measurements are repeated, which means that at a certain treatment time always multiple measurements are done with different samples.
# The treated samples are subsequently placed in a conditioned breeding chamber, and it is monitored at which samples bacterial growth is and at which samples bacterial is not taking place. […]
# The results obtained from the culture were correlated to the treatment times. For each value of the ozone concentration, it was assessed what the LONGEST treatment time was where bacterial growth was still observed: this treatment time was apparently insufficient to guarantee 100% elimination of the spores; this measurement point and all measurement points with shorter treatment times, in FIG. 2, are indicated with open circles. […]
compound,measurement,setting,value
O=[O+][O-] [ozone],degree of humidity giving optimal sterilization result,"[1]; FIG. 3A, ambient temperature 20° C.",approximately 80 % RH
same,effect of increasing the ambient temperature on sterilization,[1]; ambient temperature increased to 30° C. (versus 20° C.),favourable effect
same,effect of increasing the degree of humidity on sterilization,[1]; degree of humidity increased to 95%,did not give clear improvement
same,sterilization at low degree of humidity,[1]; less than 50% RH,no good sterilization proved to be possible
same,ozone performance equivalent OPEQ (minimum time integral of ozone concentration leading to 100% sterilization),"[1]; worst case 60% RH and 20° C., valid at all humidity above 60% RH, at 20° C. and 30° C.",15 gr·s/l
same,sterilization result in experimental set-up,bacterial spores,good results
